# Laboratory results taken from ChEMBL document CHEMBL5465560, “Selectivity Literature for EUbOPEN Chemogenomic Library” (2024).
# Columns and labels:
# [1] = molecular target: T1, MAP kinase-activated protein kinase 5 (Homo sapiens) (UniProt Q8IW41); experiment: Selectivity interaction (Kinase panel (Eurofins)) EUB0001564a MAPKAPK5; conditions: at 1 µM
# T1 sequence (whole entry): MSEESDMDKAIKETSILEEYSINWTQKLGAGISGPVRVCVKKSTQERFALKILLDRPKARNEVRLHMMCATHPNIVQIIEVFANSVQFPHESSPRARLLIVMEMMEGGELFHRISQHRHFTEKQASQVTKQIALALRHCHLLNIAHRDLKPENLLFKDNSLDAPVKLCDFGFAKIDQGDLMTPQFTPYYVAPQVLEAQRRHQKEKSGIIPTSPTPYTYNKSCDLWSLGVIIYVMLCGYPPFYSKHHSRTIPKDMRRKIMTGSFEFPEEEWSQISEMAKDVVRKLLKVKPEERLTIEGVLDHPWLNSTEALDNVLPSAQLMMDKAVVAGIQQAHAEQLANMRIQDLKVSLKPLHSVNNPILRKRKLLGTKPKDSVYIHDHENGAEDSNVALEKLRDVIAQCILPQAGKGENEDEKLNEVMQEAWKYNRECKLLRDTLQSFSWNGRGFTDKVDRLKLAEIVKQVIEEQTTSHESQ
# [2] = molecular target: Mitogen-activated protein kinase 11 (Homo sapiens) (UniProt Q15759); experiment: Selectivity interaction (KinomeScan (DiscoverX)) EUB0000618a MAPK11; conditions: at 10 µM
# [3] = molecular target: Death-associated protein kinase 3 (Homo sapiens) (UniProt O43293); experiment: Selectivity interaction (KinomeScan (DiscoverX)) EUB0000045b DAPK3
# [4] = molecular target: Serine/threonine-protein kinase pim-2 (Homo sapiens, UniProt Q9P1W9); experiment: Selectivity interaction (KinomeScan (DiscoverX)) EUB0000045b PIM2
# [5] = molecular target: Tyrosine-protein kinase Lck (Homo sapiens, UniProt P06239); experiment: Selectivity interaction (Kinase panel (KiNativ target engagement assay in Jurkat cells)) EUB0001635a LCK; type: cell-based; conditions: Selectivity number of off-targets 0.0, Selectivity number of targets 233.0, Source Knowledge https://www.sciencedirect.com/science/article/pii/S2451945619300674?via%3Dihub, at 1 µM
# [6] = molecular target: T2, Megakaryocyte-associated tyrosine-protein kinase (Homo sapiens) (UniProt P42679); conditions: at 10 µM
# T2 sequence (whole entry): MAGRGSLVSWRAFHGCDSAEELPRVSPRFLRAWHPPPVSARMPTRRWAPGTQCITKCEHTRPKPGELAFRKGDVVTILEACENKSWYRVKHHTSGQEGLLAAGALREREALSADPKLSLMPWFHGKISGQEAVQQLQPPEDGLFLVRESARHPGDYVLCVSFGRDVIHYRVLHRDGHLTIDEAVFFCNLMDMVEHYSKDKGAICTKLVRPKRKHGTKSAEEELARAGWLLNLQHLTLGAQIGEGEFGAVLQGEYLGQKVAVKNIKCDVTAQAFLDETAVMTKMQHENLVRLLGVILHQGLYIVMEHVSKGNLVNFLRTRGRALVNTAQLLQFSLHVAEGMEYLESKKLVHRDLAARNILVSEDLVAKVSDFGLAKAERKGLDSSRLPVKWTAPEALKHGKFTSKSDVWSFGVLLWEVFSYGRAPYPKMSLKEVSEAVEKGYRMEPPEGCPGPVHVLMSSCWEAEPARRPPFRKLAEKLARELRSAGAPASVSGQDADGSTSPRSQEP
# [7] = molecular target: STE20-like serine/threonine-protein kinase (Homo sapiens, UniProt Q9H2G2); experiment: Selectivity interaction (ActivX KiNativ screen (kinase selectivity in THP-1 cell lysates)) EUB0000639a SLK; type: subcellular; conditions: lysate, at 5 µM
# [8] = molecular target: T3, Mitogen-activated protein kinase kinase kinase 15 (Homo sapiens) (UniProt Q6ZN16); experiment: Selectivity interaction (KinomeScan (DiscoverX)) EUB0000229b MAP3K15; conditions: at 10 µM
# T3 sequence (whole entry): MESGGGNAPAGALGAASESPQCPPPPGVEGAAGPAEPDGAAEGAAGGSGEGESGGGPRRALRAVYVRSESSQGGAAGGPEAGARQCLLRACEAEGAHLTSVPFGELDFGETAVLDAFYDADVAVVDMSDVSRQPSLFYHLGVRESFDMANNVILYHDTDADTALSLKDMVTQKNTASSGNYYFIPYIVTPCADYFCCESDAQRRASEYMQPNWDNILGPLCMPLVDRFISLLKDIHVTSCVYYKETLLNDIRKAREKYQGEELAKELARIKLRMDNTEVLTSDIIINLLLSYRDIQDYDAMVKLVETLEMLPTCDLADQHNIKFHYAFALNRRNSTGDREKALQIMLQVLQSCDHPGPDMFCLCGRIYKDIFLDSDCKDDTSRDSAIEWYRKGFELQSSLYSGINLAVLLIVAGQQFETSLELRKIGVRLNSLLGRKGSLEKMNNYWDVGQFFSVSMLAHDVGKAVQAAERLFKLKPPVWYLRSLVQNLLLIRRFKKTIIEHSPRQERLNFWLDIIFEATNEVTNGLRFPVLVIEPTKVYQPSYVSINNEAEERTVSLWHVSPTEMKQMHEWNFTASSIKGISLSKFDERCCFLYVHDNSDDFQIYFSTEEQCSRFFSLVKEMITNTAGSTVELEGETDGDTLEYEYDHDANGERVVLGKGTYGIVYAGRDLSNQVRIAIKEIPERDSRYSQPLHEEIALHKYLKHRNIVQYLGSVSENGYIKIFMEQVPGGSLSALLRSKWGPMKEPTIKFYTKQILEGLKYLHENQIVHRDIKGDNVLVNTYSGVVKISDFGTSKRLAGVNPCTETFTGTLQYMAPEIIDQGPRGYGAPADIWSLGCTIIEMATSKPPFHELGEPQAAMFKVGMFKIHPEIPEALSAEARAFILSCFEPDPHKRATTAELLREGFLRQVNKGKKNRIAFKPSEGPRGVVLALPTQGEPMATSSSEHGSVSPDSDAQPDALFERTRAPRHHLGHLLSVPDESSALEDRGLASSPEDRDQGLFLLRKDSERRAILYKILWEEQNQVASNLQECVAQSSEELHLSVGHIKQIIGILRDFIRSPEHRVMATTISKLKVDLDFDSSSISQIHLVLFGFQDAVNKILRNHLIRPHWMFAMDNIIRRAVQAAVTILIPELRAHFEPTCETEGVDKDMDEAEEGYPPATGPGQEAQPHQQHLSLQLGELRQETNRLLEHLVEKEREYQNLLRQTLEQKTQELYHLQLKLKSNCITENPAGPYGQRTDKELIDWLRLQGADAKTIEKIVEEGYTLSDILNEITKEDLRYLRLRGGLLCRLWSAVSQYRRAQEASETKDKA
# [9] = molecular target: Tyrosine-protein kinase Yes (Homo sapiens) (UniProt P07947); experiment: Selectivity interaction (Kinase panel (Z-LYTE Assay)) EUB0001632a YES1; conditions: at 10 µM
# Chain of Tyrosine-protein kinase Yes (Homo sapiens) (P07947 2-543 limits assumed): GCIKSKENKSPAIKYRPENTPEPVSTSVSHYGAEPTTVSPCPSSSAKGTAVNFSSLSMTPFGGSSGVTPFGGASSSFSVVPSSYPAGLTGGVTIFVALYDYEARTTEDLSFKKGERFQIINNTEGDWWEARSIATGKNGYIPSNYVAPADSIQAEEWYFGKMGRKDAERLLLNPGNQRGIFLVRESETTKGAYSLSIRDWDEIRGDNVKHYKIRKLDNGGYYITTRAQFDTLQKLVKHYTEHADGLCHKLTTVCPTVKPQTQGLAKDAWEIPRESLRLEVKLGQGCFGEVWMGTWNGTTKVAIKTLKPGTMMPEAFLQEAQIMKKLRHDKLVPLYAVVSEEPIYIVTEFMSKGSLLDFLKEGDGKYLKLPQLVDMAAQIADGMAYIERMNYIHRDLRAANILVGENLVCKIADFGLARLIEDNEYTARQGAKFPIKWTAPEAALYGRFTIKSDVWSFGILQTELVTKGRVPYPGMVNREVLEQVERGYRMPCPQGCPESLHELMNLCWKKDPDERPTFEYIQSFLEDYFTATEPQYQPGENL
# Chain of Serine/threonine-protein kinase pim-2 (Q9P1W9 whole entry, looked up): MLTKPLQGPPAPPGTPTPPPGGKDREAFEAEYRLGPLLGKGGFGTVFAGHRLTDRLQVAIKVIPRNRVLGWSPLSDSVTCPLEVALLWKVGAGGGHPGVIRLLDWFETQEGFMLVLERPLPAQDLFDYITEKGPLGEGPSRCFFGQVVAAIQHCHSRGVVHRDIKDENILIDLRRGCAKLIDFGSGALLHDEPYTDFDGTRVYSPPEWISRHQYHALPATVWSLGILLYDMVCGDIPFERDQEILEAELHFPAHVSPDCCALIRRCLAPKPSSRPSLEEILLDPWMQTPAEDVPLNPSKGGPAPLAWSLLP
# Chain of Death-associated protein kinase 3 (Homo sapiens) (O43293 whole entry, looked up): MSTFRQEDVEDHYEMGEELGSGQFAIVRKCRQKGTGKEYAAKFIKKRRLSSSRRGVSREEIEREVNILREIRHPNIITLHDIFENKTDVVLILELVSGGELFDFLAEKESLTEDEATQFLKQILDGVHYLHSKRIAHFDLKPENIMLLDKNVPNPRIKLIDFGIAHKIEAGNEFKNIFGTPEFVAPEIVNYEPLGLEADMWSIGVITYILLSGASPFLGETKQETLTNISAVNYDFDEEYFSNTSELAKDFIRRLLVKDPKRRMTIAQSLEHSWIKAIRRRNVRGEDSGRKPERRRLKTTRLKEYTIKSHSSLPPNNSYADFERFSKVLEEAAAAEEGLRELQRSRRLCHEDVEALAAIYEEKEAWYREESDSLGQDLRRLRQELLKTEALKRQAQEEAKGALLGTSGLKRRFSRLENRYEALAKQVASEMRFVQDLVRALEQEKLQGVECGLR
# Chain of STE20-like serine/threonine-protein kinase (Q9H2G2 whole entry, looked up): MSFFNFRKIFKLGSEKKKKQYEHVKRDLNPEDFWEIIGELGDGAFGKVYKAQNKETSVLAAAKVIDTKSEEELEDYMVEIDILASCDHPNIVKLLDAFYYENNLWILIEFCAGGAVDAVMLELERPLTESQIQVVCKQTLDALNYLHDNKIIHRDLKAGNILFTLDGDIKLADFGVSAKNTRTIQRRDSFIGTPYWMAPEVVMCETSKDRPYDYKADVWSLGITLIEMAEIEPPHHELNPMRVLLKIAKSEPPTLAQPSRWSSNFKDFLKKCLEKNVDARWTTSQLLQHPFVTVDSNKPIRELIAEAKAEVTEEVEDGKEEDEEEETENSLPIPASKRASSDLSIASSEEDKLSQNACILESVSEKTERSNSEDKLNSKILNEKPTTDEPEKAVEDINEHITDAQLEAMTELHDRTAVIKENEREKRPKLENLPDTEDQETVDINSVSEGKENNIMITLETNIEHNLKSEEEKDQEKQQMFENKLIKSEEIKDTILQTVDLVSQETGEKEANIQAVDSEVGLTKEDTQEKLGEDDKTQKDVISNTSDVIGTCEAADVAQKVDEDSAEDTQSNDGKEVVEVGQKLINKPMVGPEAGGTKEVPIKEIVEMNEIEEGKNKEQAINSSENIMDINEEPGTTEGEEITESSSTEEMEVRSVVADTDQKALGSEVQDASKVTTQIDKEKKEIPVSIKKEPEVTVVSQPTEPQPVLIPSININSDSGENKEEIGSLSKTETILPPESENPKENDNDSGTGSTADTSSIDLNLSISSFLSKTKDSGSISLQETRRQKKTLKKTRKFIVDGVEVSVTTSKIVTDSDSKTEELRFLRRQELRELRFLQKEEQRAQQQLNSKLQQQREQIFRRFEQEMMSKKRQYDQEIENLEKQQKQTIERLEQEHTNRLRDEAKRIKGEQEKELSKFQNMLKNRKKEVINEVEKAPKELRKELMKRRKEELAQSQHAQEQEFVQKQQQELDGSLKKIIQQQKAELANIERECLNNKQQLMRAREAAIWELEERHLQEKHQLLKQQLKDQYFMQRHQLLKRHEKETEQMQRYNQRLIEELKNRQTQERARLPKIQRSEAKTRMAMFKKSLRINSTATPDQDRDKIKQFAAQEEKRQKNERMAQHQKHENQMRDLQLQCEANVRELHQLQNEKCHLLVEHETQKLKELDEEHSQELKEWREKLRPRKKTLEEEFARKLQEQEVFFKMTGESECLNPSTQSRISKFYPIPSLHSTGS
# Chain of Mitogen-activated protein kinase 11 (Homo sapiens) (Q15759 whole entry): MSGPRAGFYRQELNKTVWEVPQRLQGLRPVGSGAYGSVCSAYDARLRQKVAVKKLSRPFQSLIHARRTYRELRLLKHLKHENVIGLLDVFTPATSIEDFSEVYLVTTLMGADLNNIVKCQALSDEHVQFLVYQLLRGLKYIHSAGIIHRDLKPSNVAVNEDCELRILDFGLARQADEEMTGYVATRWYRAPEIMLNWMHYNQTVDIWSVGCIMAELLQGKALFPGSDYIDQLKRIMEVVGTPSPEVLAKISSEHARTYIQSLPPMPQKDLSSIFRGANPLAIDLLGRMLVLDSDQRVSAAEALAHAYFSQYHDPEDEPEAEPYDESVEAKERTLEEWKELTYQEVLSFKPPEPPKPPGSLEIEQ
# Chain of Tyrosine-protein kinase Lck (P06239 2-509 limits assumed): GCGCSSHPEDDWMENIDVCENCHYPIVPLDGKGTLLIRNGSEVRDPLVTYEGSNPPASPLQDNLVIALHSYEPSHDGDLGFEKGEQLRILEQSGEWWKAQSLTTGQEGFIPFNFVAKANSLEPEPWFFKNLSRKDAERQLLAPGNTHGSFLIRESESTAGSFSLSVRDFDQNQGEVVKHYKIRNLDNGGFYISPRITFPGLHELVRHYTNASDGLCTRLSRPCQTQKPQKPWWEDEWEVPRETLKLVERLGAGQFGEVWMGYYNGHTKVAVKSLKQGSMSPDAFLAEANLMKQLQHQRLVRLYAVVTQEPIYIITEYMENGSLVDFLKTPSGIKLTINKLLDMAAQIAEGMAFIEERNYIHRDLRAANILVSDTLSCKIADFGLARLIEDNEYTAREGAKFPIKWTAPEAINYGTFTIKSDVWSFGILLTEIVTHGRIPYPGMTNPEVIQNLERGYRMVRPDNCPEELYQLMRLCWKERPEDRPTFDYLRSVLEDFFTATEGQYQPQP
structure (smiles),measurement,setting,value
CC[C@@H](Nc1c(C#N)c(-c2ccc(-c3cccc(C)c3F)cc2)nc2cnccc12)C(=O)O [BAY-091],% of inhibition,[1],23.6%
O[C@H]1CC[C@H](Nc2ncc3nc(Nc4c(F)cc(F)cc4F)n([C@H]4CCOC4)c3n2)CC1,% of control,[2],24%
C=CC(=O)Nc1cc(-n2c(=O)ccc3cnc4ccc(-c5ccc(NS(C)(=O)=O)cc5)cc4c32)ccc1C,% of control,[3]; at 1 µM,100%
same,% of control,[3]; at 10 µM,60%
same,% of control,[4]; at 1 µM,66%
same,% of control,[4]; at 10 µM,100%
C=CC(=O)Nc1ccc(C(=O)Nc2[nH]nc3c2CN(C(=O)N[C@H](CN(C)C)c2ccccc2)C3(C)C)cc1,% of engagement,[5],-3.6%
Cc1cc([C@@H](C)Nc2ccccc2C(=O)O)c2nc(N3CCOCC3)cc(=O)n2c1 [AZD-6482],% of control,[6],96%
CC[C@@H]1[C@H](F)C(=O)N[C@@H]1COc1nccc2cc(C(N)=O)c(OC)cc12 [ZIMLOVISERTIB],% of inhibition,[7],-0.8%
COc1cc(N(C)c2ccnc3ccc(C(F)(F)F)cc23)cc(OC)c1OC,% binding,[8],100%
Cn1cc(-n2cnc3c(NCc4nc5cc(Cl)c(Cl)cc5[nH]4)nc(N4CCOCC4)nc32)cn1,% of control,[9],0.787%
